Results on 15 compounds are retold here after paper PMC7037732, “Synthesis of Combretastatin A-4 and 3′-Aminocombretastatin A-4 derivatives with Aminoacid Containing Pendants and Study of their Interaction with Tubulin and as Downregulators of the VEGF, hTERT and c-Myc Gene Expression” (Molecules, 2020).

Assay [1] has as its system HT-29 (human colon adenocarcinoma). Description: Inhibition of cell proliferation (MTT), HT-29. Type of assay: cell-based. Conditions: Homo sapiens, HT-29, 48 h, 48 h of treatment (footnote), average ±SD of three experiments. From the text: (§1) The ability of the synthetic compounds to inhibit cell proliferation was established by means of their IC50 values towards the tumor cell lines HT-29 (human colon adenocarcinoma), MCF-7 (breast adenocarcinoma) and A-549 (human pulmonary adenocarcinoma), as well as towards the nontumor cell line HEK-293 (human embryonic kidney cells). Results for compounds derived from CA-4 are presented in Table 1, along with the calculated selectivity indexes SIA (for HT-29 cell line), SIB (for MCF-7 cell line) and SIc (for A-549 cell line), obtained by dividing the IC50 values of the nontumor cell line (HEK-293) by those of the corresponding tumor cell line. The higher the SI index, the higher the therapeutic safety margin.
(§2) Cell culture media were purchased from Gibco (Grand Island, NY, USA). Fetal bovine serum (FBS) was a product of Harlan-Seralab (Belton, U.K.). Supplements and other chemicals not listed in this section were obtained from Sigma Chemical Co. (St. Louis, MO, USA). Plastics for cell culture were supplied by Thermo Fischer Scientific Inc., Madrid, Spain. All tested compounds were dissolved in DMSO at a concentration of 10 μg/mL and stored at −20 °C until use. HT-29, MCF-7, A-549 and HEK-293 cell lines were maintained in a Dulbecco’s modified Eagle’s medium (DMEM) containing glucose (1 g/L), glutamine (2 mM), penicillin (50 IU/mL), streptomycin (50 μg/mL) and amphotericin B (1.25 μg/mL), supplemented with 10% FBS. Cells from human non-small lung carcinoma (clone A549; ATCC n°: CCL2, MD, USA) were routinely grown at 37 °C in a humidified atmosphere of 5% CO2. Cells were maintained in a standard medium composed of RPMI 1640 (Lonza, Group Ltd., Basel, Switzerland), supplemented with 10% fetal bovine serum (FBS), 2 mM L-glutamine and 1% penicillin and streptomycin (Invitrogen). Cells were free from mycoplasma as determined by MycoAlert tests (Lonza, Group Ltd., Basel, Switzerland).
(§3) A total of 5 × 10^3 HT-29, MCF-7 or HEK-293 cells in a total volume of 100 μL of their respective growth media were incubated with serial dilutions of the tested compounds. The 3-(4,5-dimethylthiazol-2-yl)-2,5-diphenyltetrazolium bromide (MTT; Sigma Chemical Co.) dye reduction assay in a 96-well microplate was used, as previously described. […] The resulting formazan was dissolved in 150 μL of 0.04 N HCl/2-propanol and read at 550 nm. All determinations were carried out in triplicate.

For the next assay, the system named is purified tubulin. Briefly: Critical concentration (CrC) for the assembly of purified tubulin in GAB. Type of assay: biochemical. Conditions: compound 27.5 μM, tubulin 25 μM, glycerol (GAB) and GTP assembly buffer; control 7.9 ± 1.2. As for the experimental part:
The effect on the self-assembly of tubulin was determined by measuring the critical concentration (CrC).

Assay [2] has as its system HEK-293 (human embryonic kidney cells). Description: Inhibition of cell proliferation (MTT), nontumor HEK-293. Conditions: Homo sapiens, HEK293, 48 h, 48 h of treatment (footnote), average ±SD of three experiments. Type of assay: cell-based.
From the text: as §1, §2, §3

For assay [3], the system named is MCF-7 (breast adenocarcinoma). Briefly: Inhibition of cell proliferation (MTT), MCF-7. Conditions: Homo sapiens, MCF7, 48 h, 48 h of treatment (footnote), average ±SD of three experiments. Type of assay: cell-based, human.
From the text: as §1, §2, §3

For assay [4], the system named is A-549 (human pulmonary adenocarcinoma). Briefly: Inhibition of cell proliferation (MTT), A-549. The format is cell-based. Conditions: 48 h of treatment (footnote), average ±SD of three experiments.
From the text: as §1
as §2, with “Switzerland). […]” for “Switzerland).”

A further assay has as its system A-549 cells. Description: Cell cycle distribution by flow cytometry. Type of assay: cell-based, human. Conditions: A-549, 24 h; for cells accumulated in the G2/M phase: concentration per compound as in Tables 6 and 7, control 14%. As for the experimental part: The effects of some CA-4 derivatives on the cell cycle were evaluated in A-549 cells.
The effects of some AmCA-4 derivatives on the cell cycle were also evaluated in A-549 cells.
The supernatant and trypsinated cells were harvested and then centrifuged (1200 rpm, 5 min, 4 °C). The cell pellet was resuspended in 1 mL of cold 70% ethanol for 30 min at −20 °C. Cells were centrifuged (2000 rpm, 5 min, 4 °C) to remove ethanol, and then the cell pellet was resuspended in the staining mix containing 50 µg/mL propidium iodide (Molecular Probes, France) and 100 µg/mL RNAse A (Sigma, France) in PBS for 20 min at room temperature in darkness. Samples were analyzed on a Becton Dickinson FACScan flow cytometer using the CellQuest software, which was also used to determine the percentage of cells in the G2/M phases of the cell cycle. PI was excited at 488 nm, and fluorescence analyzed at 620 nm on channel Fl-2.

Where [5] appears, read: Homo sapiens, A549, 48 h, Table 2.
The mark [6] stands for this setting: Homo sapiens, A549, 48 h, Table 1.

As for `COc1ccc(/C=C\c2cc(OC)c(OC)c(OC)c2)cc1NC(=O)[C@@H](Cc1ccccc1)NC(=O)OCC1c2ccccc2-c2ccccc21` [Compound 9.3], the IC50 was 13 ± 5 µM in assay [1] (Table 2), 11.2 ± 1.5 µM in assay [2] (Table 2), 4.5 ± 1.7 µM in assay [3] (Table 2) and 18.5 ± 1.7 µM in assay [4] (setting [5]). Further, the “CrC (critical concentration)” value in the assay with purified tubulin is given as 6.6 ± 0.2 µM.

Consider `COC(=O)[C@H](Cc1ccccc1)NC(=O)COc1cc(/C=C\c2cc(OC)c(OC)c(OC)c2)ccc1OC` [Compound 3.4], for which the IC50 in assay [1] (Table 1) was 28 ± 7 µM; in assay [2] (Table 1) it was 4 ± 1 µM; in assay [3] (Table 1), 8 ± 2 µM; in assay [4] (setting [6]), under 10 µM; in assay [4] (Table 1), 9 ± 2 µM. The compound also came in with a G0/G1 with A-549 cells (50 μM) of 33 ± 4%. In the assay with A-549 cells (50 μM), the G2/M amounted to 51 ± 2%. For the same compound, the S in the assay with A-549 cells (50 μM) stood at 16 ± 5%. In addition, the “cells accumulated in the G2/M phase” value with A-549 cells is on record as 50–70%.

As to `COc1ccc(/C=C\c2cc(OC)c(OC)c(OC)c2)cc1NC(=O)[C@@H]1CCCN1` [Compound 8.6], the IC50 came to 0.7 ± 0.2 µM in assay [1] (Table 2), 2.4 ± 1.4 µM in assay [2] (Table 2), 3.1 ± 0.6 µM in assay [3] (Table 2) and 1.2 ± 0.3 µM in assay [4] (setting [5]). The “CrC (critical concentration)” value in the assay on purified tubulin was determined as 8.4 ± 0.1 µM.

On to `COc1ccc(/C=C\c2cc(OC)c(OC)c(OC)c2)cc1NC(=O)[C@H]1CCCN1` [Compound 10.4], for which the IC50 came to 4.4 ± 1.9 µM in assay [1] (Table 2), 3 ± 0.6 µM in assay [2] (Table 2), 0.6 ± 0.14 µM in assay [3] (Table 2) and 7.03 ± 0.22 µM in assay [4] (setting [5]). For the same compound, the “CrC (critical concentration)” value with purified tubulin is given as 8.7 ± 1.2 µM.

Take `COc1ccc(/C=C\c2cc(OC)c(OC)c(OC)c2)cc1NC(=O)[C@@H]1CCCN1C(=O)OCC1c2ccccc2-c2ccccc21` [Compound 7.6]: the IC50 was found to be 0.32 ± 0.14 µM in assay [1] (Table 2), 0.13 ± 0.03 µM in assay [2] (Table 2), 0.058 ± 0.012 µM in assay [3] (Table 2) and 1.33 ± 0.09 µM in assay [4] (setting [5]). The “CrC (critical concentration)” value with purified tubulin came to 6.0 ± 0.5 µM.

For the compound `COc1ccc(/C=C\c2cc(OC)c(OC)c(OC)c2)cc1NC(=O)[C@H](NC(=O)OCC1c2ccccc2-c2ccccc21)C(C)C` [Compound 9.1], the IC50 came to 5.5 ± 0.7 µM in assay [1] (Table 2), 5.1 ± 0.7 µM in assay [2] (Table 2), 4.8 ± 0.5 µM in assay [3] (Table 2) and 7.34 ± 0.23 µM in assay [4] (setting [5]). Further, in the assay with purified tubulin, the “CrC (critical concentration)” value came out at 8.9 ± 1.5 µM.

Consider `COC(=O)[C@@H](Cc1ccccc1)NC(=O)COc1cc(/C=C\c2cc(OC)c(OC)c(OC)c2)ccc1OC` [Compound 5.3], for which the IC50 in assay [1] (Table 1) came out at 12 ± 4 µM; in assay [2] (Table 1) it was 3.7 ± 1.6 µM; in assay [3] (Table 1), 6 ± 1 µM; in assay [4] (setting [6]), 10 ± 3 µM. For the same compound, the G0/G1 in the assay with A-549 cells (50 μM) is reported as 38 ± 2%. In the assay with A-549 cells (50 μM), this compound showed a G2/M of 43 ± 1%. This compound had a S with A-549 cells (50 μM) of 19 ± 2%.

`COc1ccc(/C=C\c2cc(OC)c(OC)c(OC)c2)cc1OCC(=O)N[C@@H](CO)C(=O)O` [Compound 4.6]: the IC50 was 39 ± 16 µM in assay [1] (Table 1), 17 ± 1 µM in assay [2] (Table 1), 27 ± 9 µM in assay [3] (Table 1) and 36 ± 4 µM in assay [4] (setting [6]). Moreover, in the assay with purified tubulin, the “CrC (critical concentration)” value is reported as 7.9 ± 1.6 µM.

In the case of `COc1ccc(/C=C\c2cc(OC)c(OC)c(OC)c2)cc1NC(=O)[C@H](N)Cc1ccccc1` [Compound 10.3], the IC50 in assay [1] (Table 2) is 3.9 ± 0.8 µM; in assay [2] (Table 2), 3.5 ± 0.9 µM; in assay [3] (Table 2) it was 2 ± 0.8 µM; in assay [4] (setting [5]) it was 2.9 ± 0.5 µM. Also, in the assay with purified tubulin, the “CrC (critical concentration)” value worked out at 7.7 ± 2.1 µM.

Regarding `COC(=O)CNC(=O)COc1cc(/C=C\c2cc(OC)c(OC)c(OC)c2)ccc1OC` [Compound 3.1], the IC50 in assay [1] (Table 1) worked out at 12 ± 2 µM; in assay [2] (Table 1), 9 ± 1 µM; in assay [3] (Table 1) it was 8 ± 2 µM; in assay [4] (setting [6]), 26 ± 2 µM. Moreover, the “CrC (critical concentration)” value in the assay on purified tubulin worked out at 9.52 ± 0.05 µM.

Turning to `COc1ccc(/C=C\c2cc(OC)c(OC)c(OC)c2)cc1NC(=O)[C@@H](CC(C)C)NC(=O)OCC1c2ccccc2-c2ccccc21` [Compound 9.2], the IC50 in assay [1] (Table 2) came to 44 ± 6 µM; in assay [2] (Table 2), 2.4 ± 0.4 µM; in assay [3] (Table 2) it was 3.1 ± 0.5 µM; in assay [4] (setting [5]), 48 ± 3 µM. Further, in the assay on purified tubulin, the “CrC (critical concentration)” value is reported as 6.5 ± 0.7 µM.

`COc1ccc(/C=C\c2cc(OC)c(OC)c(OC)c2)cc1OCC(=O)N[C@H](C(=O)O)C(C)O` (some centres unmarked) [Compound 4.7]: the IC50 in assay [1] (Table 1) is 34 ± 11 µM; in assay [2] (Table 1) it was 23 ± 9 µM; in assay [3] (Table 1), 40 ± 9 µM; in assay [4] (setting [6]), 41 ± 3 µM. The “CrC (critical concentration)” value in the assay on purified tubulin worked out at 10.1 ± 1.8 µM.

Take `COC(=O)[C@@H](CC(C)C)NC(=O)COc1cc(/C=C\c2cc(OC)c(OC)c(OC)c2)ccc1OC` [Compound 5.2]: the half-maximal inhibitory concentration (IC50) in assay [1] (Table 1) stood at 26 ± 1 µM; in assay [2] (Table 1) it was 13 ± 3 µM; in assay [3] (Table 1), 16 ± 3 µM; in assay [4] (setting [6]), 22 ± 3 µM. The same compound returned a G0/G1 with A-549 cells (100 μM) of 43 ± 4%. The same compound came in with a G2/M in the assay with A-549 cells (100 μM) of 34 ± 1%. In the assay with A-549 cells (100 μM), this compound registered an S of 23 ± 4%.

Take `COC(=O)[C@H](CO)NC(=O)COc1cc(/C=C\c2cc(OC)c(OC)c(OC)c2)ccc1OC` [Compound 3.6]: the IC50 was found to be 9 ± 3 µM in assay [1] (Table 1), 7 ± 2 µM in assay [2] (Table 1), 7 ± 3 µM in assay [3] (Table 1) and 18 ± 4 µM in assay [4] (setting [6]). The compound further yielded a G0/G1 with A-549 cells (75 μM) of 30 ± 9%. The compound further had a G2/M in the assay on A-549 cells (75 μM) of 53 ± 3%. In addition, the S in the assay with A-549 cells (75 μM) worked out at 17 ± 6%. Further, the “cells accumulated in the G2/M phase” value with A-549 cells is recorded as 50–70%.

With `COC(=O)[C@H](NC(=O)COc1cc(/C=C\c2cc(OC)c(OC)c(OC)c2)ccc1OC)C(C)C` [Compound 5.1], the IC50 in assay [1] (Table 1) is 27 ± 7 µM; in assay [2] (Table 1) it was 3.9 ± 0.6 µM; in assay [3] (Table 1), 9 ± 3 µM; in assay [4] (setting [6]), under 10 µM; in assay [4] (Table 1), 5 ± 1 µM. Also, in the assay with A-549 cells (25 μM), the G0/G1 was determined as 53 ± 8%. In the assay on A-549 cells (25 μM), the G2/M is reported as 31 ± 7%. In the assay with A-549 cells (25 μM), the S is listed as 16 ± 2%.
